{
  "source": "paper PMC8371902",
  "about": "“Phase 1 study of M2698, a p70S6K/AKT dual inhibitor, in patients with advanced cancer” (Journal of Hematology & Oncology, 2021)",
  "test": "Monotherapy population PK model (two-compartment)",
  "details": "in vivo",
  "from_the_text": "A monotherapy population PK model was developed, consisting of a two-compartment model with four absorption transit compartments and first-order elimination (Additional file 1: Table S5).",
  "data": [
    {"smiles": "NC(=O)c1cccc2c(N[C@H](CN3CCC3)c3ccc(Cl)c(C(F)(F)F)c3)ncnc12", "note": "[M2698]", "values": [
      {"measurement": "ALB on Vc, population PK estimate", "value": 0.0247},
      {"measurement": "BSA on Vc, population PK estimate", "value": 1.17},
      {"measurement": "CL (clearance), population PK estimate", "value": 7.06, "unit": "L/h"},
      {"measurement": "KA (absorption rate constant), population PK estimate", "value": 2.02, "unit": "h⁻¹"},
      {"measurement": "Q (flow rate), population PK estimate", "value": 18.0, "unit": "L/h"},
      {"measurement": "Vc (volume of distribution of the central compartment), population PK estimate", "value": 292, "unit": "L"},
      {"measurement": "Vp (volume of distribution of the peripheral compartment), population PK estimate", "value": 53.0, "unit": "L"}
    ]}
  ]
}
